According to US12605376B2, “Methods of treating relapsing multiple sclerosis using an inhibitor of Bruton's tyrosine kinase” (Genentech, Inc., priority 2020, dated 2026):
Where two headings read alike, the source gives them in different places. Marks after values point to notes of the source that are not given here.

How the values were obtained:
B cells (CD69) = conditions: B cell activation, human whole blood, literature values, cited from earlier work
B cells = test: Inhibition of B cell activation (B-cell receptor signalling); format: cell-based; conditions: (±SEM)
[1] = test system: panel of over 200 human kinases; test: Kinase selectivity screen in a panel of over 200 human kinases; format: biochemical; conditions: for # off-target kinases >50% INH/# total kinases tested @ 1 μM: unpublished
basophils (CD63) = conditions: basophil activation, human whole blood, literature values, cited from earlier work
[2] = test system: cells of myeloid progenitor lineage (basophils); test: Inhibition of myeloid lineage progenitor cell activation (FcR signaling, basophils); format: cell-based; conditions: (±SEM)
[3] = test system: panel of over 200 human kinases; conditions: Crawford, et al., cited from earlier work
[4] = Safety analysis of previous fenebrutinib clinical trials in RA, SLE and CSU
[5] = without specific elimination procedures; cited from earlier work
[6] = patients with autoimmune conditions

C=CC(=O)N1CCC(CNc2ncnc(N)c2-c2ccc(Oc3ccccc3)cc2)CC1 [Evobrutinib]
IC50 (B cells (CD69)): 0.084 µM
EC50 (B cells): 161 nM
EC90 (B cells): 524 nM
off-target kinases inhibited by >50% / kinases tested at 10 μM ([1]; 10 μM): 18/218
IC50 (basophils (CD63)): 1.66 µM
EC50 [2]: 171 nM
EC90 [2]: 3100 nM
# off-target kinases >50% INH/# total kinases tested @ 1 μM ([3]; J Med Chem 2018, listed as EVO): 3/221
# off-target kinases >50% INH/# total kinases tested @ 1 μM ([3]; J Med Chem 2018): 3/221 ^a

C=CC(=O)N1CCC[C@@H](n2c(=O)n(-c3ccc(Oc4ccccc4)cc3)c3c(N)nccc32)C1 [Tolebrutinib]
IC50 (B cells (CD69)): 0.01 µM
EC50 (B cells): 26 nM
EC90 (B cells): 84 nM
# off-target kinases >50% INH/# total kinases tested @ 1 μM [1]: 19/218 ^d
# off-target kinases >50% INH/# total kinases tested @ 1 μM ([1]; listed as TOL): 19/218
IC50 (basophils (CD63)): 0.166 µM
EC50 [2]: 80 nM
EC90 [2]: 281 nM

C[C@H]1CN(C2COC2)CCN1c1ccc(Nc2cc(-c3ccnc(N4CCn5c(cc6c5CC(C)(C)C6)C4=O)c3CO)cn(C)c2=O)nc1 [Fenebrutinib, (S)-2-(3′-(hydroxymethyl)-1-methyl-5-((5-(2-methyl-4-(oxetan-3-yl)piperazin-1-yl)pyridin-2-yl)amino)-6-oxo-1,6-dihydro-[3,4′-bipyridin]-2′-yl)-7,7-dimethyl-2,3,4,6,7,8-hexahydro-1H-cyclopenta[4,5]pyrrolo[1,2-a]pyrazin-1-one]
IC50 (B cells (CD69)): 0.0084 µM
IC50 (B cells (CD69); listed as FEN): 0.008 µM
EC50 (B cells): 8 nM
EC90 (B cells): 65 nM
IC50 (basophils (CD63)): 0.0307 µM
IC50 (basophils (CD63); listed as FEN): 0.031 µM
EC50 [2]: 15 nM
EC90 [2]: 62 nM
Headache, investigator-reported events ([4]; 200 mg twice daily, n = 299): 16 (5.4%) patients (%)
Nasopharyngitis, investigator-reported events ([4]; 200 mg twice daily, n = 299): 18 (6.0%) patients (%)
Nausea, investigator-reported events ([4]; 200 mg twice daily, n = 299): 17 (5.7%) patients (%)
Number of patients with AE leading to treatment withdrawal ([4]; 200 mg twice daily, n = 299): 32 (10.7%) patients (%)
Number of patients with Serious AE ([4]; 200 mg twice daily, n = 299): 18 (6.0%) patients (%)
Number of patients with Serious AE related to blinded fenebrutinib ([4]; 200 mg twice daily, n = 299): 6 (2.0%) patients (%)
Number of patients with Study withdrawal due to AE ([4]; 200 mg twice daily, n = 299): 17 (5.7%) patients (%)
Total adverse events (AEs) ([4]; 200 mg twice daily, n = 299, RA/SLE/CSU trials): 507
Number of patients with Fatal AE ([4]; 200 mg twice daily, n = 299, death deemed unrelated to fenebrutinib): 1 (0.3%) patients (%)
Percent of patients with infection adverse events ([4]; CSU, 200 mg, n = 52, median follow-up 56 days): 32.7% (n = 52)
Percent of patients with infection adverse events ([4]; RA cohort 1, 200 mg, n = 110, median follow-up 84 days): 10.9% (n = 110)
Percent of patients with infection adverse events ([4]; RA cohort 2, 200 mg, n = 49, median follow-up 84 days): 6.1% (n = 49)
Percent of patients with infection adverse events ([4]; SLE, 200 mg, n = 88, median follow-up 336 days): 46.6% (n = 88)
infection rates in fenebrutinib arms compared to placebo ([4]; background immunosuppressant therapy in RA and SLE): no imbalance of infection rates
patients with serious infections ([4]; combined fenebrutinib arms): 2.0%
bleeding or bruising, patients ([4]; fenebrutinib arms): 7.7%
Hy's law cases [4, 6]: no Hy's law cases
risk causally associated with fenebrutinib (liver aminotransferase elevations) [4, 6]: Asymptomatic and reversible liver aminotransferase elevations were the only risk causally associated with fenebrutinib
atrial fibrillations, flutters, or other supraventricular tachyarrhythmias ([4]; randomized clinical trial patients): No fenebrutinib randomized clinical trial patients had atrial fibrillations, flutters, or other supraventricular tachyarrhythmias
# off-target kinases >50% INH/# total kinases tested @ 1 μM ([3]; J Med Chem 2018, listed as FEN): 3/286
# off-target kinases >50% INH/# total kinases tested @ 1 μM ([3]; J Med Chem 2018): 2/286 ^a

C/C(O)=C(\C#N)C(=O)Nc1ccc(C(F)(F)F)cc1 [teriflunomide]
time to lower plasma teriflunomide concentrations to 0.02 mg/L [5]: up to 2 years
